Laboratory results from PMC10066365, “Nemacol is a small molecule inhibitor of C. elegans vesicular acetylcholine transporter with anthelmintic potential” (Nature Communications, 2023).
Values joined by “and” are separate entries in the source; they are usually repeats but may differ in a detail not shown here. Identical values can stand only once. “Also recorded” adds a separate entry of the source.

Legend:
Pristionchus pacificus = Pristionchus pacificus motor disruption dose-response on solid media, 1 h; settings: for mean % any phene (coiled, jerky-Unc or paralyzed): Pristionchus pacificus young adults, mean of three biological replicates
C. elegans = C. elegans motor phenotype scoring on solid media (Punc/jerky-unc, coiled, paralyzed), wild-type young adults; type: in vivo, Caenorhabditis elegans; settings: for any phene, mean % fraction of young adults exhibiting any phenotype (coiled, jerky-Unc or paralyzed) / atypical locomotion (number of animals) / coiled (number of animals) / no phene (number of animals) / paralyzed (number of animals): one hour; for any phene, mean % fraction of young adults exhibiting any phenotype (coiled, jerky-Unc or paralyzed): mean of three biological replicates; for atypical locomotion (number of animals) / coiled (number of animals) / no phene (number of animals) / paralyzed (number of animals): young adults, 20 animals per trial, single replicate counts; for C1 (number of animals scored) / C2 (number of animals scored) / Fraction Coiled, AVERAGES / Fraction Paralyzed, AVERAGES / Fraction Punc, AVERAGES / NP (number of animals scored) / P (number of animals scored) / Fraction Coiled / Fraction Paralyzed / Punc (number of animals scored) / Fraction Punc / Next Day: Animals alive (moving fine): adults; for Fraction Coiled / Fraction Paralyzed / Fraction Punc: single experiment

## O=[N+]([O-])c1ccc(N2CCN(CC3CC4C=CC3C4)CC2)cc1 (stereo not shown) [Nemacol-3]
Pristionchus pacificus; conc 3.75, observed at one hour
  mean % any phene (coiled, jerky-Unc or paralyzed): 0%
Pristionchus pacificus; conc 15, observed at one hour
  mean % any phene (coiled, jerky-Unc or paralyzed): 16.6667%
Pristionchus pacificus; conc 60, observed at one hour
  mean % any phene (coiled, jerky-Unc or paralyzed): 95%
Pristionchus pacificus; Pristionchus pacificus, 1 h, read-out: P. pacificus motor disruption EC50
  EC50: 24.5 ± 2.2 µM
C. elegans; 3.75uM
  any phene, mean % fraction of young adults exhibiting any phenotype (coiled, jerky-Unc or paralyzed): 19.1667%
  atypical locomotion (number of animals): 0 and 13 and 10
  coiled (number of animals): 0
  no phene (number of animals): 20 and 7 and 10
  paralyzed (number of animals): 0
C. elegans; 15 μM, 30 min
  C1 (number of animals scored): 0
  C2 (number of animals scored): 0
  Fraction Coiled, AVERAGES: 0.0
  Fraction Paralyzed, AVERAGES: 0.0
  Fraction Punc, AVERAGES: 0.111
  NP (number of animals scored): 17 and 14
  P (number of animals scored): 0
  Fraction Coiled: 0.0
  Fraction Paralyzed: 0.0
C. elegans; 15 μM, 60 min
  C1 (number of animals scored): 0
  C2 (number of animals scored): 0
  Fraction Coiled, AVERAGES: 0.0
  Fraction Paralyzed, AVERAGES: 0.0
  Fraction Punc, AVERAGES: 0.4
  P (number of animals scored): 0
  Fraction Coiled: 0.0
  Fraction Paralyzed: 0.0
C. elegans; 15 μM, 90 min
  C1 (number of animals scored): 0
  C2 (number of animals scored): 0
  Fraction Coiled, AVERAGES: 0.0
  Fraction Paralyzed, AVERAGES: 0.0
  Fraction Punc, AVERAGES: 0.167
  NP (number of animals scored): 16 and 14 and 15
  P (number of animals scored): 0
  Punc (number of animals scored): 2 and 4 and 3
  Fraction Coiled: 0.0
  Fraction Paralyzed: 0.0
  Fraction Punc: 0.111 and 0.222 and 0.167
C. elegans; 15 μM, 120 min
  C1 (number of animals scored): 0
  C2 (number of animals scored): 0
  Fraction Coiled, AVERAGES: 0.0
  Fraction Paralyzed, AVERAGES: 0.0
  Fraction Punc, AVERAGES: 0.0185
  NP (number of animals scored): 18 and 17
  P (number of animals scored): 0
  Fraction Coiled: 0.0
  Fraction Paralyzed: 0.0
C. elegans; 15 μM, 240 min
  C1 (number of animals scored): 0
  C2 (number of animals scored): 0
  Fraction Coiled, AVERAGES: 0.0
  Fraction Paralyzed, AVERAGES: 0.0
  Fraction Punc, AVERAGES: 0.0
  NP (number of animals scored): 18
  P (number of animals scored): 0
  Punc (number of animals scored): 0
  Fraction Coiled: 0.0
  Fraction Paralyzed: 0.0
  Fraction Punc: 0.0
C. elegans; 15 μM, 360 min
  C1 (number of animals scored): 0
  C2 (number of animals scored): 0
  Fraction Coiled, AVERAGES: 0.0
  Fraction Paralyzed, AVERAGES: 0.0
  Fraction Punc, AVERAGES: 0.0
  NP (number of animals scored): 18
  P (number of animals scored): 0
  Punc (number of animals scored): 0
  Fraction Coiled: 0.0
  Fraction Paralyzed: 0.0
  Fraction Punc: 0.0
C. elegans; 15 μM
  Next Day: Animals alive (moving fine): alive, recovered; also recorded: alive recovered
C. elegans; 15uM
  any phene, mean % fraction of young adults exhibiting any phenotype (coiled, jerky-Unc or paralyzed): 65.4545%
  atypical locomotion (number of animals): 12 and 14 and 4 and 3 and 7
  coiled (number of animals): 2 and 1 and 5
  no phene (number of animals): 6 and 5 and 15 and 16 and 0
  paralyzed (number of animals): 2 and 0 and 8 and 11
C. elegans; 30 μM, 30 min
  C1 (number of animals scored): 0
  C2 (number of animals scored): 0
  Fraction Coiled, AVERAGES: 0.0
  Fraction Paralyzed, AVERAGES: 0.0
  Fraction Punc, AVERAGES: 0.333
  NP (number of animals scored): 14 and 11
  P (number of animals scored): 0
  Punc (number of animals scored): 4 and 7
  Fraction Coiled: 0.0
  Fraction Paralyzed: 0.0
  Fraction Punc: 0.222 and 0.4
C. elegans; 30 μM, 60 min
  C1 (number of animals scored): 0
  C2 (number of animals scored): 0
  Fraction Coiled, AVERAGES: 0.0
  Fraction Paralyzed, AVERAGES: 0.0
  Fraction Punc, AVERAGES: 0.6
  P (number of animals scored): 0
  Punc (number of animals scored): 8 and 15
  Fraction Coiled: 0.0
  Fraction Paralyzed: 0.0
  Fraction Punc: 0.444 and 0.8
C. elegans; 30 μM, 90 min
  C1 (number of animals scored): 0
  C2 (number of animals scored): 0
  Fraction Coiled, AVERAGES: 0.0
  Fraction Paralyzed, AVERAGES: 0.0
  Fraction Punc, AVERAGES: 0.3
  NP (number of animals scored): 13 and 9 and 16
  P (number of animals scored): 0
  Fraction Coiled: 0.0
  Fraction Paralyzed: 0.0
C. elegans; 30 μM, 120 min
  C1 (number of animals scored): 0
  C2 (number of animals scored): 0
  Fraction Coiled, AVERAGES: 0.0
  Fraction Paralyzed, AVERAGES: 0.0
  Fraction Punc, AVERAGES: 0.0741
  NP (number of animals scored): 17 and 16
  P (number of animals scored): 0
  Punc (number of animals scored): 1 and 2
  Fraction Coiled: 0.0
  Fraction Paralyzed: 0.0
  Fraction Punc: 0.0556 and 0.111
C. elegans; 30 μM, 240 min
  C1 (number of animals scored): 0
  C2 (number of animals scored): 0
  Fraction Coiled, AVERAGES: 0.0
  Fraction Paralyzed, AVERAGES: 0.0
  Fraction Punc, AVERAGES: 0.0
  NP (number of animals scored): 18
  P (number of animals scored): 0
  Punc (number of animals scored): 0
  Fraction Coiled: 0.0
  Fraction Paralyzed: 0.0
  Fraction Punc: 0.0
C. elegans; 30 μM, 360 min
  C1 (number of animals scored): 0
  C2 (number of animals scored): 0
  Fraction Coiled, AVERAGES: 0.0
  Fraction Paralyzed, AVERAGES: 0.0
  Fraction Punc, AVERAGES: 0.0
  NP (number of animals scored): 18
  P (number of animals scored): 0
  Punc (number of animals scored): 0
  Fraction Coiled: 0.0
  Fraction Paralyzed: 0.0
  Fraction Punc: 0.0
C. elegans; 30 μM
  Next Day: Animals alive (moving fine): alive, recovered; also recorded: alive, recoveed
C. elegans; 60 μM, 30 min
  C1 (number of animals scored): 0
  C2 (number of animals scored): 0
  Fraction Coiled, AVERAGES: 0.0
  Fraction Paralyzed, AVERAGES: 0.0
  Fraction Punc, AVERAGES: 0.667
  NP (number of animals scored): 8 and 6 and 4
  P (number of animals scored): 0
  Punc (number of animals scored): 10 and 12 and 14
  Fraction Coiled: 0.0
  Fraction Paralyzed: 0.0
  Fraction Punc: 0.556 and 0.667 and 0.8
C. elegans; 60 μM, 60 min
  C1 (number of animals scored): 0
  C2 (number of animals scored): 0
  Fraction Coiled, AVERAGES: 0.0
  Fraction Paralyzed, AVERAGES: 0.0
  Fraction Punc, AVERAGES: 0.741
  NP (number of animals scored): 5 and 3 and 6
  P (number of animals scored): 0
  Punc (number of animals scored): 13 and 15 and 12
  Fraction Coiled: 0.0
  Fraction Paralyzed: 0.0
  Fraction Punc: 0.8 and 0.667
C. elegans; 60 μM, 90 min
  C1 (number of animals scored): 0
  C2 (number of animals scored): 0
  Fraction Coiled, AVERAGES: 0.0
  Fraction Paralyzed, AVERAGES: 0.0
  Fraction Punc, AVERAGES: 0.463
  P (number of animals scored): 0
  Fraction Coiled: 0.0
  Fraction Paralyzed: 0.0
C. elegans; 60 μM, 120 min
  C1 (number of animals scored): 0
  C2 (number of animals scored): 0
  Fraction Coiled, AVERAGES: 0.0
  Fraction Paralyzed, AVERAGES: 0.0
  Fraction Punc, AVERAGES: 0.259
  NP (number of animals scored): 10 and 15
  P (number of animals scored): 0
  Fraction Coiled: 0.0
  Fraction Paralyzed: 0.0
C. elegans; 60 μM, 240 min
  C1 (number of animals scored): 0
  C2 (number of animals scored): 0
  Fraction Coiled, AVERAGES: 0.0
  Fraction Paralyzed, AVERAGES: 0.0
  Fraction Punc, AVERAGES: 0.037
  NP (number of animals scored): 18 and 16
  P (number of animals scored): 0
  Fraction Coiled: 0.0
  Fraction Paralyzed: 0.0
  Fraction Punc: 0.0
C. elegans; 60 μM, 360 min
  C1 (number of animals scored): 0
  C2 (number of animals scored): 0
  Fraction Coiled, AVERAGES: 0.0
  Fraction Paralyzed, AVERAGES: 0.0
  Fraction Punc, AVERAGES: 0.0
  NP (number of animals scored): 18
  P (number of animals scored): 0
  Punc (number of animals scored): 0
  Fraction Coiled: 0.0
  Fraction Paralyzed: 0.0
  Fraction Punc: 0.0
C. elegans; 60 μM
  Next Day: Animals alive (moving fine): alive, recovered; also recorded: alive recovered
C. elegans; 60uM
  any phene, mean % fraction of young adults exhibiting any phenotype (coiled, jerky-Unc or paralyzed): 95.8333%
  atypical locomotion (number of animals): 5 and 8 and 9 and 7 and 0 and 4
  coiled (number of animals): 8 and 6 and 10
  no phene (number of animals): 0 and 2 and 3
  paralyzed (number of animals): 7 and 6 and 1 and 4 and 10 and 8
C. elegans; Caenorhabditis elegans, 1 h, Fig. 1, dose-response at 60 min, wild-type young adults, +/- 95% CI, read-out: EC50
  EC50: 24.5 ± 6.1 µM
